Test results published in ChEMBL document CHEMBL1129037 (J Med Chem, 1996).

Key:
[1] = target: Sodium-dependent dopamine transporter (Rattus norvegicus) (UniProt P23977)
Description: The compound Hill coefficient value determined for WIN-Binding

[2] = target: T1, Sodium-dependent dopamine transporter (Rattus norvegicus, UniProt P23977); experiment: Inhibitory activity against [3H]dopamine uptake in rat striatal tissue; type: functional, tissue-based, Striatum
[3] = target: T1, Sodium-dependent dopamine transporter; experiment: Inhibition of [3H]WIN-35428 binding to dopamine transporter using rat striatal tissue; type: tissue-based, Striatum

Chain of Sodium-dependent dopamine transporter (Rattus norvegicus) (P23977 whole entry): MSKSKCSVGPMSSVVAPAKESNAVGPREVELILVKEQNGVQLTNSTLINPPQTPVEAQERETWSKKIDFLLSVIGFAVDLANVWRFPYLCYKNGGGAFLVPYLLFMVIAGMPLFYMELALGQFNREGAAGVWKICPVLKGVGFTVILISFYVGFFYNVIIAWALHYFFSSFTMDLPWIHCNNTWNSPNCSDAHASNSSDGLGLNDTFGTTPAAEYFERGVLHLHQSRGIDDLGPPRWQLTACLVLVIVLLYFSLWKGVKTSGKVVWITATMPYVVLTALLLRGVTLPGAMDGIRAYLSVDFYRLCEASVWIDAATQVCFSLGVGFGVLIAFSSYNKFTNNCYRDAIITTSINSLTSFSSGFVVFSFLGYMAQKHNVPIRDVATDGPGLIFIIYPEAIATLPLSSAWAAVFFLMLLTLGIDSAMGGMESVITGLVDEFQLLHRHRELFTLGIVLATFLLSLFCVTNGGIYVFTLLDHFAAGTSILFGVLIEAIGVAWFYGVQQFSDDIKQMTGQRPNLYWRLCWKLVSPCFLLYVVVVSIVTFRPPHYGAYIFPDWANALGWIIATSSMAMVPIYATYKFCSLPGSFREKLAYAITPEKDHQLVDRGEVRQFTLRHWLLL
T1 sequence (P23977 whole entry): as above

Work on `COC(=O)[C@@H](c1ccc(N)cc1)[C@@H]1CCCCN1` yielded a Hill coefficient [1] of 0.96, an IC50 [2] of 115 nM and an IC50 [3] of 34.6 nM.
`COC(=O)C(c1cccc(Cl)c1)C1CCCCN1` (single isomer, unassigned) was tested, and the Hill coefficient [1] was 1.03, the IC50 [2] was 1540 nM and the IC50 [3] was 378 nM.
With `COC(=O)C(c1ccc(C(C)(C)C)cc1)C1CCCCN1` (single isomer, unassigned) the Hill coefficient [1] was 1.1.
In the case of `COC(=O)[C@@H](c1ccc(C(C)(C)C)cc1)[C@@H]1CCCCN1`, the Hill coefficient [1] is reported as 1.12.
Work on `COC(=O)[C@@H](c1ccccc1)[C@@H]1CCCCN1` yielded a Hill coefficient [1] of 0.9.
Compound `COC(=O)[C@@H](c1ccc([N+](=O)[O-])cc1)[C@@H]1CCCCN1` has a Hill coefficient [1] of 1.17, an IC50 [2] of 1610 nM and an IC50 [3] of 494 nM.
`COC(=O)[C@@H](c1ccc(O)cc1)[C@@H]1CCCCN1` was tested, and the Hill coefficient [1] was 1.07, the IC50 [2] was 340 nM and the IC50 [3] was 98 nM.
`COC(=O)[C@H]1[C@@H](OC(=O)c2ccccc2)C[C@@H]2CC[C@H]1N2C` showed a Hill coefficient [1] of 1.03.
`COC(=O)[C@@H](c1ccc(I)cc1)[C@@H]1CCCCN1` showed a Hill coefficient [1] of 1.1, an IC50 [2] of 64.5 nM and an IC50 [3] of 14 nM.
Compound `COC(=O)[C@@H](c1ccc(F)cc1)[C@@H]1CCCCN1` has a Hill coefficient [1] of 0.97, an IC50 [2] of 142 nM and an IC50 [3] of 35 nM.
For `COC(=O)[C@@H](c1cccc(F)c1)[C@@H]1CCCCN1`, the Hill coefficient [1] was 0.85, the IC50 [2] was 160 nM and the IC50 [3] was 40.5 nM.
Work on `COC(=O)[C@@H](c1cccc(C)c1)[C@@H]1CCCCN1` yielded a Hill coefficient [1] of 1.01, an IC50 [2] of 100 nM and an IC50 [3] of 21.4 nM.
For `COC(=O)[C@@H](c1cccc(O)c1)[C@@H]1CCCCN1`, the Hill coefficient [1] was 1.09, the IC50 [2] was 790 nM and the IC50 [3] was 321 nM.
`COC(=O)[C@@H](c1ccc(Cl)c(Cl)c1)[C@@H]1CCCCN1` gave a Hill coefficient [1] of 2.07, an IC50 [2] of 7 nM and an IC50 [3] of 5.3 nM.
Compound `COC(=O)C(c1ccccc1Cl)C1CCCCN1` (single isomer, unassigned) has a Hill coefficient [1] of 0.92, an IC50 [2] of 61000 nM and an IC50 [3] of 52500 nM.
`COC(=O)C(c1ccccc1OC)C1CCCCN1` (single isomer, unassigned) gave a Hill coefficient [1] of 0.87, an IC50 [2] of 290000 nM and an IC50 [3] of 139000 nM.
`COC(=O)[C@@H](c1cccc(Cl)c1)[C@@H]1CCCCN1` showed a Hill coefficient [1] of 0.95, an IC50 [2] of 23 nM and an IC50 [3] of 5.1 nM.
For `COC(=O)[C@@H](c1ccccc1O)[C@@H]1CCCCN1`, the Hill coefficient [1] was 1.04 and the IC50 [2] was 35800 nM.
With `COC(=O)[C@@H](c1ccccc1F)[C@@H]1CCCCN1` the Hill coefficient [1] was 0.9, the IC50 [2] was 2900 nM and the IC50 [3] was 1420 nM.
For `COC(=O)[C@@H](c1cccc(Br)c1)[C@@H]1CCCCN1`, the Hill coefficient [1] was 1.14, the IC50 [2] was 12.8 nM and the IC50 [3] was 4.2 nM.
In the case of `COC(=O)C(c1ccccc1Br)C1CCCCN1` (single isomer, unassigned), the Hill coefficient [1] is reported as 1.06, the IC50 [2] is reported as 59000 nM and the IC50 [3] is reported as 38100 nM.
In the case of `COC(=O)[C@@H](c1ccc(Br)cc1)[C@@H]1CCCCN1`, the Hill coefficient [1] is reported as 1.15, the IC50 [2] is reported as 26.3 nM and the IC50 [3] is reported as 6.9 nM.
`COC(=O)[C@@H](c1cccc(N)c1)[C@@H]1CCCCN1` was tested, and the Hill coefficient [1] was 1.06, the IC50 [2] was 578 nM and the IC50 [3] was 265 nM.
For `COC(=O)[C@@H](c1ccc(OC)c(OC)c1)[C@@H]1CCCCN1`, the Hill coefficient [1] was 1.12, the IC50 [2] was 1760 nM and the IC50 [3] was 810 nM.
Compound `COC(=O)[C@@H](c1ccc(C)cc1)[C@@H]1CCCCN1` has a Hill coefficient [1] of 1.05, an IC50 [2] of 126 nM and an IC50 [3] of 33 nM.
For `COC(=O)[C@@H](c1ccc(Cl)cc1)[C@@H]1CCCCN1`, the Hill coefficient [1] was 1.17, the IC50 [2] was 73.8 nM and the IC50 [3] was 20.6 nM.
In the case of `COC(=O)[C@@H](c1ccccc1OC)[C@@H]1CCCCN1`, the Hill coefficient [1] is reported as 0.94 and the IC50 [2] is reported as 81000 nM.
In the case of `COC(=O)[C@@H](c1ccccc1Br)[C@@H]1CCCCN1`, the Hill coefficient [1] is reported as 0.93, the IC50 [2] is reported as 3410 nM and the IC50 [3] is reported as 1870 nM.
Compound `COC(=O)[C@@H](c1ccccc1Cl)[C@@H]1CCCCN1` has a Hill coefficient [1] of 0.98, an IC50 [2] of 2660 nM and an IC50 [3] of 1950 nM.
